# Assay results from patent EP0157753B1, “New somatostatin compounds, process for their synthesis, preparation for veterinary use containing said compound and process for the treatment of animals” (TECHLAND, Société Anonyme, priority 1984, dated 1987).
# Test: Treatment of young bulls with GPP: live weight gain and food intake over 7 months
# Assay type: in vivo
# Settings: batch 5 (SRIF, MTP treated) versus batch 3 (SRIF, MDP treated); low, without any statistical significance
# Experimental: They were injected four times with 100 µg of GPP or a mixture of equivalent amounts of muramyl di-or triptide and SRIF. Samples were solubilized in physiological medium supplemented with 40 % WN polyethyleneglycol 6000. Intramuscular injections in the neck of animals were performed with 3 ml of the solution at days 0, 10, 30 and 60 of the 7 months period. During the seventh months treatment period the animals received a concentrate ad libitum. Each month, the animals were weighed and blood samples were taken for further analyses. The results concerning the parameters studied in this zootechnical experiment were summarized in the following.
# Variance analysis of the body live weight gain has been performed on 27 animals alive on September 27, 1984 (16 controls and 11 treated animals). At that time, the difference of life weight gain between the 16 control animals and the 11 treated animals was 31.3 kg per animal, i. e. 11 % over controls.
substance,measurement,value
"SRIF, MTP: Coupling of a muramyl tripeptide analog (N-acetyl muramyl-L-Ala-D-isoglutamyl-L-lysine OMe) with somatostatine (SRIF)",deviation between the life gain of treated animals of batch 5 and batch 3,5.7 kg
